Measured values from patent US20160279190A1, “MODULATION OF AXON DEGENERATION” (GENENTECH, INC., priority 2008, published 2016).

Assays:
[1] = test system: DRGs; assay: anti-NGF antibody (NGF withdrawal) screen for inhibitors of neuron or axon degeneration; format: cell-based, mouse; conditions: inhibitor 100 μM or 10 μM added 1 hour before 25 μg/ml anti-NGF antibodies; 20 hours; actin staining
Experimental: The anti-NGF antibody model described above in Example 1 was used in a screen for inhibitors of neuron or axon degeneration. A library of more than 400 small molecules (Tocris Bioscience) was tested to see which, if any, modulate degeneration observed in the presence of anti-NGF antibodies.
Mouse E13.5 embryos were dissected and placed into L15 medium (Invitrogen). The spinal cord was dissected out from the embryos with DRGs attached. The spinal cords with DRGs attached were placed into L15 medium+5% goat serum (Gibco) on ice. The DRGs were removed using a tungsten needle and the remaining spinal cord was disposed of. Eight well slides were filled with N3-F12 solution (23 ml Ham's F12, 1 ml N3 supplement, and 1 ml 1 M glucose) to which was added 25 ng/ml NGF (Roche). (N3 supplement was made by dilution of N3 100× concentrate, which was made by mixing the following ingredients, in the following order: 5.0 ml Hank's buffered saline solution (HBSS; Ca, Mg free; Invitrogen), 1.0 ml bovine serum albumin (10 mg/ml in HBSS=150 μm), 2.0 ml Transferrin (T1147-1G, human, 100 mg/ml in HBSS=1.1 mM), 1.0 ml sodium selenite (S9133-1MG, 0.01 mg/ml in HBSS=58 μM), 0.4 ml putrescine dihydrochloride (P5780-5G, 80 mg/ml in HBSS=500 mM), 0.2 ml progesterone (P8783-5G, 0.125 mg/ml in absolute ethanol=400 μM), 0.02 ml corticosterone (C2505-500MG, 2 mg/ml in absolute ethanol=5.8 mM), 0.1 ml triiodothyonine, sodium salt (T6397-100MG, 0.2 mg/ml in 0.01 N NaOH=300 μM), 0.4 ml insulin (16634-250MG, bovine pancreas, 241 U/mg, 25 mg/ml in 20 mM HCl=4.4 mM), for a total volume of 10.02 ml (can be stored at −20° C.). An N3 supplement stock was made by combining the following: 10 ml Pen/Strep (100×, Gibco), 10 ml glutamine (200 mM, Gibco), 10 ml MEM vitamins (100×, Gibco), 10 ml N3 concentrate (100×, see above), for a total volume of 40 ml. The mixture was filter sterilized using a 0.22 μm filter, and 1-2 ml aliquots were stored at −20° C.).
The DRGs were sectioned into halves, and placed in the center of each well of an 8-chamber slide (BD Biocoat PDL/Laminin coated glass, Becton Dickinson). The DRGs were permitted to attach to the slide at room temperature for 5-10 minutes, followed by an overnight incubation at 37° C. Inhibitors of choice were added at a concentration of 100 μM (top row) or 10 μM (bottom row) 1 hour before adding anti-NGF antibodies. The anti-NGF antibodies were added to the right half of the slide (4 wells) at a concentration of 25 μg/ml. After incubation for 20 hours at 37° C., the slides were fixed with 30% sucrose/8% paraformaldehyde (PFA) by adding 250 μl of the fix solution directly to the 250 μl of culture medium. (To make the 30% sucrose/8% PFA solution, the following ingredients were added to a 600 ml beaker including a stir bar: 250 ml 16% PFA (cat#15710-S, Electron Microscopy Sciences), 50 ml 10×PBS pH 7.4, and 150 g sucrose. The solution was mixed under low heat until dissolved, and then 6-8 drops of 1 M NaOH were added to bring the pH to 7.4. The volume was then brought to 500 ml with water in a graduated cylinder. The solution was mixed well, placed in aliquots, and frozen.) The slides were fixed for 30 minutes, followed by washing once with PBS. All cells were labeled with an actin stain (Alexa-568 conjugated phalloidin; 1:40; Invitrogen), a membrane dye (DiO; 1:200; Invitrogen), and a DNA stain (Hoechst 33258; 1:10,000; Invitrogen) in 0.1% Triton and 1% goat serum for 2 hours at room temperature. […]

[2] = test system: DRG explants; assay: pan-JNK inhibitors in DRG explants, NGF withdrawal assay; format: cell-based; conditions: anti-NGF plus inhibitor (FIG. 46)
Experimental: If DLK inhibition protects neurons from degeneration through limiting the phosphorylation of JNK2 and JNK3, then inhibitors of JNK2 or JNK3 should also protect neurons from cell death and axon degeneration. The ability of direct JNK inhibition to protect neurons against NGF withdrawal-dependent degeneration was also assessed. DRG explants were treated with anti-NGF and either pan-JNK inhibitor JNKV or JNKVIII, prior to assessment in the NGF withdrawal assay described above.

| SMILES | Comments (observations on protection against neurodegeneration upon NGF withdrawal) [1] | most protective concentration [2] [µM] | protection of DRG explants from NGF-dependent degeneration [2] |
| --- | --- | --- | --- |
| OC(CN1CCNCC1)Cn1c2ccc(Br)cc2c2cc(Br)ccc21 (centres unmarked) [Bax Channel Blocker] | Cell bodies detach | – | – |
| CCOc1nc(NC(=O)Cc2cc(OC)ccc2OC)cc(N)c1C#N [JNKVIII] | – | 4 | able to protect DRG explants from NGF-dependent degeneration |
| N#C/C(=C1/Nc2ccccc2S1)c1ccnc(NCCc2cccnc2)n1 [JNKV] | – | 5 | able to protect DRG explants from NGF-dependent degeneration |
| C=C[C@@]1(C)CC(=O)[C@]2(O)[C@@]3(C)[C@@H](O)CCC(C)(C)[C@@H]3[C@H](OC(=O)CCN(C)C)[C@H](OC(C)=O)[C@@]2(C)O1 [NKH 477] | Partial | – | – |
| C[S+]([O-])c1ccc(-c2nc(-c3ccc(F)cc3)c(-c3ccncc3)[nH]2)cc1.Cl (centres unmarked) [SB 203580 HCI] | Partial | – | – |
| CC(NC(=O)/C(C#N)=C/c1ccc(O)c(O)c1)c1ccccc1 (centres unmarked) [Tyrphostin B44] | Partial | – | – |
